The IC50 is the concentration needed to halve the response being measured. Low readings indicate greater potency in that assay, high ones weaker potency in that assay.

Test [1] deals with Human immunodeficiency virus 1. Kind of test: Resistance index, ratio of EC50 for SQV-resistant HIV1 SaqR carrying G48V/L90MV mutation to EC50 for wild type HIV1 NL4-3 in HEK293 cells after 48 hrs by replication-deffective luciferase reporter gene-based phenotypic assay. It is filed as functional.
For test [2], the system named is Human immunodeficiency virus 1. Kind of test: Resistance index, ratio of EC50 for SQV-resistant HIV1 4596 carrying L10R/M46I/L63P/[…]/L90M mutation to EC50 for wild type HIV1 NL4-3 in HEK293 cells after 48 hrs by replication-deffective luciferase reporter gene-based phenotypic assay. Format: functional.
For a further test, the target named is Cathepsin D (Homo sapiens, UniProt P07339). The experiment in a line: Inhibition of human cathepsin D.
Cathepsin D, sequence (P07339 65-162 limits assumed): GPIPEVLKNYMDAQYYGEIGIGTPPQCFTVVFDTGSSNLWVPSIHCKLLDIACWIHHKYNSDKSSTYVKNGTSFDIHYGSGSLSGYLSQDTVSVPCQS
Cathepsin D, sequence (P07339 169-412 limits assumed): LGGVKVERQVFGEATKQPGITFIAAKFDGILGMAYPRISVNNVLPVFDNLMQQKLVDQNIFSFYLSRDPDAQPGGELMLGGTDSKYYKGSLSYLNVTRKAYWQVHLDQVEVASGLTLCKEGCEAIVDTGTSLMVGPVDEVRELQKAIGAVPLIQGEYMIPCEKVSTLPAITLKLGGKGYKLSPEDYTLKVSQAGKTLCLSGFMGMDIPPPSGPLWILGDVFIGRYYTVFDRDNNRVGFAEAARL
A short description of test [3]: Inhibition of pig pepsin. Set-up: species or system Sus scrofa.

As to `COC(=O)N[C@H](C(=O)NCCCC[C@@H](CO)N(CC(C)C)S(=O)(=O)c1ccc(N)cc1)C(c1ccccc1)c1ccccc1` [PPL-100], the “fold change (FC)” value in test [1] was found to be 2.4. Besides, the Activity in test [2] is 1.2. In addition, the IC50 (at Cathepsin D; in test [3]) was above 50 µM each time.

The record behind these values is ChEMBL document CHEMBL1137017, “In vitro antiviral activity and cross-resistance profile of PL-100, a novel protease inhibitor of human immunodeficiency virus type 1” (Antimicrob Agents Chemother, 2007).
